# Assay results from US20230312556A1, “ARYLAMIDE COMPOUND, PHARMACEUTICAL COMPOSITION COMPRISING SAME, AND PREPARATION METHOD THEREFOR AND USE THEREOF” (SICHUAN KELUN-BIOTECH BIOPHARMACEUTICAL CO., LTD., priority 2020, published 2023).
# Molecular target: mutant BRAF enzyme (BRAF-V600E) (Homo sapiens (Human), UniProt P15056, V600E)
# Experiment: RAF inhibition assay (TB-PMAP2K1 kit), BRAF-V600E
# Assay type: biochemical
# Conditions: FLUORESCEIN-MAP2K1 substrate, 60 min reaction
# mutant BRAF enzyme (BRAF-V600E), sequence (P15056 whole entry V600E): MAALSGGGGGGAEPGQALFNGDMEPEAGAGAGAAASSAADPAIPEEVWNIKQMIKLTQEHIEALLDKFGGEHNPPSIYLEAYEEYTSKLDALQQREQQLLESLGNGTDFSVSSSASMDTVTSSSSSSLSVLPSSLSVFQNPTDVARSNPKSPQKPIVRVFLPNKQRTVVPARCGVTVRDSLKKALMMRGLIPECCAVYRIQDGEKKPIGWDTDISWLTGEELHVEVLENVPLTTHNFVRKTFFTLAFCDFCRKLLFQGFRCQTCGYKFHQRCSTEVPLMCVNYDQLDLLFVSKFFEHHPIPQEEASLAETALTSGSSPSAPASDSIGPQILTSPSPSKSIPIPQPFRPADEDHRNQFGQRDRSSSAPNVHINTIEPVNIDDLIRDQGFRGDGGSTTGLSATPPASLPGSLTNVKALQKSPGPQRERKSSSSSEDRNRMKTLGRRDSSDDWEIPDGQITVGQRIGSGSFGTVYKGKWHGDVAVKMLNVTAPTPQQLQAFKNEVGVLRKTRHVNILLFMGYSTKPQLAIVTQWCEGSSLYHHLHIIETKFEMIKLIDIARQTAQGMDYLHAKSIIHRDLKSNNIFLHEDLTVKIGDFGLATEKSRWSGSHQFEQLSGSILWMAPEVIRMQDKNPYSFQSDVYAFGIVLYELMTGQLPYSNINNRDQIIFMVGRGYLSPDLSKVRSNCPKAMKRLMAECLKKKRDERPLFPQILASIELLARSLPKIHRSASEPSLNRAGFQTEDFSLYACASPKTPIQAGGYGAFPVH
row,Structure (SMILES),IC50
1,"Cc1ccc2c(Nc3ccc4c(c3)OCCO4)nccc2c1NC(=O)c1cccc2c(N)ncnc12 [Compound 77, 4-amino-N-(1-((2,3-dihydrobenzo[b][1,4]dioxin-6-yl)amino)-6-methylisoquinolin-5-yl)quinazoline-8-carboxamide]",7.9 ± 0.73 nM
2,"COc1ccc(Nc2nccc3c(NC(=O)c4cccc5c(N)ncnc45)c(C)ccc23)cc1 [Compound 57, 4-amino-N-(1-((4-methoxyphenyl)amino)-6-methylisoquinolin-5-yl)quinazoline-8-carboxamide]",2.89 ± 0.34 nM
3,"Cc1ccc2c(C(O)c3ccc(N(C)C)nc3)nccc2c1NC(=O)c1csc2c(N)ncnc12 (stereo not shown) [Compound 37, 4-amino-N-(1-((6-(dimethylamino)pyridin-3-yl)(hydroxy)methyl)-6-methylisoquinolin-5-yl)thieno[3,2-d]pyrimidine-7-carboxamide]",20.4 ± 3.03 nM
4,"Cc1ccc2c(Cc3cccc(Cl)c3)nccc2c1NC(=O)c1csc2c(N)ncnc12 [Compound 16, 4-amino-N-(1-(3-chlorobenzyl)-6-methylisoquinolin-5-yl)thieno[3,2-d]pyrimidine-7-carboxamide]",6.27 ± 1.15 nM
5,"Cc1ccc2c(Nc3cccc(Cl)c3F)nccc2c1NC(=O)c1cn(C)c2c(N)ncnc12 [Compound 101, 4-amino-N-(1-((3-chloro-2-fluorophenyl)amino)-6-methylisoquinolin-5-yl)-5-methyl-5H-pyrrolo[3,2-d]pyrimidine-7-carboxamide]",5.58 ± 0.57 nM
6,"COc1ccc(Nc2nccc3c(NC(=O)c4cccc5c(N)ncnc45)c(C)ccc23)cn1 [Compound 75, 4-amino-N-(1-((6-methoxypyridin-3-yl)amino)-6-methylisoquinolin-5-yl)quinazoline-8-carboxamide]",5.58 ± 0.77 nM
7,"Cc1ccc2c(Nc3ccc4c(c3)CN(C)CC4)nccc2c1NC(=O)c1cccc2c(N)ncnc12 [Compound 82, 4-amino-N-(6-methyl-1-((2-methyl-1,2,3,4-tetrahydroisoquinolin-7-yl)amino)isoquinolin-5-yl)quinazoline-8-carboxamide]",13.2 ± 1.69 nM
8,"Cc1ccc2c(Nc3cccc(Cl)c3F)nccc2c1NC(=O)c1cc(OCCO)cc2c(N)ncnc12 [Compound 86, 4-amino-N-(1-((3-chloro-2-fluorophenyl)amino)-6-methylisoquinolin-5-yl)-6-(2-hydroxyethoxy)quinazoline-8-carboxamide]",11.9 ± 1.3 nM
9,"Cc1ccc2c(Cc3ccccc3F)nccc2c1NC(=O)c1csc2c(N)ncnc12 [Compound 2, 4-amino-N-(1-(2-fluorobenzyl)-6-methylisoquinolin-5-yl)thieno[3,2-d]pyrimidine-7-carboxamide]",35.6 ± 2.4 nM
10,"Cc1ccc2c(C(O)c3ccccc3Cl)nccc2c1NC(=O)c1cccc2c(N)ncnc12 (stereo not shown) [Compound 24, 4-amino-N-(1-((2-chlorophenyl)(hydroxy)methyl)-6-methylisoquinolin-5-yl)quinazoline-8-carboxamide]",7.1 ± 0.7 nM
11,"Cc1ccc2c(Nc3ccc(CN(C)C)cc3)nccc2c1NC(=O)c1cccc2c(N)ncnc12 [Compound 40, 4-amino-N-(1-((4-((dimethylamino)methyl)phenyl)amino)-6-methylisoquinolin-5-yl)quinazoline-8-carboxamide]",8.51 ± 1.02 nM
12,"Cc1ccc2c(Nc3c(F)c(F)cc(F)c3F)nccc2c1NC(=O)c1cccc2c(N)ncnc12 [Compound 95, 4-amino-N-(6-methyl-1-((2,3,5,6-tetrafluorophenyl)amino)isoquinolin-5-yl)quinazoline-8-carboxamide]",13.9 ± 1.48 nM
13,"Cc1ccc2c(Cc3ccccc3Cl)nccc2c1NC(=O)c1csc2c(N)ncnc12 [Compound 10, 4-amino-N-(1-(2-chlorobenzyl)-6-methylisoquinolin-5-yl)thieno[3,2-d]pyrimidine-7-carboxamide]",4.73 ± 1.82 nM
14,"Cc1ccc2c(Nc3cc(Br)ccc3F)nccc2c1NC(=O)c1cccc2c(N)ncnc12 [Compound 91, 4-amino-N-(1-((5-bromo-2-fluorophenyl)amino)-6-methylisoquinolin-5-yl)quinazoline-8-carboxamide]",20.9 ± 2.81 nM
15,"Cc1ccc2c(Nc3cccc(Cl)c3F)nccc2c1NC(=O)c1nccc2c(N)ncnc12 [Compound 66, 4-amino-N-(1-((3-chloro-2-fluorophenyl)amino)-6-methylisoquinolin-5-yl)pyrido[3,4-d]pyrimidine-8-carboxamide]",2.57 ± 0.32 nM
16,"Cc1ccc2c(Cc3ccc(Cl)cc3)nccc2c1NC(=O)c1csc2c(N)ncnc12 [Compound 18, 4-amino-N-(1-(4-chlorobenzyl)-6-methylisoquinolin-5-yl)thieno[3,2-d]pyrimidine-7-carboxamide]",8.33 ± 1.25 nM
17,"Cc1ccc2c(Nc3ccc(CN(C)C)c(C(F)(F)F)c3)nccc2c1NC(=O)c1cnc2c(N)ncnn12 [Compound 62, 4-amino-N-(1-((4-((dimethylamino)methyl)-3-(trifluoromethyl)phenyl)amino)-6-methylisoquinolin-5-yl)imidazo[2,1-f][1,2,4]triazine-7-carboxamide]",19.7 ± 4.67 nM
18,"Cc1ccc2c(Nc3cccc(Cl)c3F)ncnc2c1NC(=O)c1cccc2c(N)ncnc12 [Compound 102, 4-amino-N-(4-((3-chloro-2-fluorophenyl)amino)-7-methylquinazolin-8-yl)quinazoline-8-carboxamide]",12.4 ± 3.05 nM
19,"Cc1ccc2c(C(=O)c3ccc(Cl)cc3)nccc2c1NC(=O)c1csc2c(N)ncnc12 [Compound 21, 4-amino-N-(1-(4-chlorobenzoyl)-6-methylisoquinolin-5-yl)thieno[3,2-d]pyrimidine-7-carboxamide]",5.99 ± 1.82 nM
20,"COc1ccc(C(O)c2nccc3c(NC(=O)c4csc5c(N)ncnc45)c(C)ccc23)cc1 (stereo not shown) [Compound 6, 4-amino-N-(1-(hydroxy(4-methoxyphenyl)methyl)-6-methylisoquinolin-5-yl)thieno[3,2-d]pyrimidine-7-carboxamide]",25.2 ± 4.08 nM
21,"COc1ccc(Nc2nccc3c(NC(=O)c4cnc5c(N)ncnn45)c(C)ccc23)c(F)c1 [Compound 61, 4-amino-N-(1-((2-fluoro-4-methoxyphenyl)amino)-6-methylisoquinolin-5-yl)imidazo[2,1-f][1,2,4]triazine-7-carboxamide]",2.88 ± 0.74 nM
22,"Cc1ccc2c(Nc3cccc(Cl)c3F)nccc2c1NC(=O)c1cc(N2CCN(C)CC2)cc2c(N)ncnc12 [Compound 54, 4-amino-N-(1-((3-chloro-2-fluorophenyl)amino)-6-methylisoquinolin-5-yl)-6-(4-methylpiperazin-1-yl)quinazoline-8-carboxamide]",11 ± 2.02 nM
23,"Cc1ccc(Nc2nccc3c(NC(=O)c4cccc5c(N)ncnc45)c(C)ccc23)cc1 [Compound 65, 4-amino-N-(6-methyl-1-(p-tolylamino)isoquinolin-5-yl)quinazoline-8-carboxamide]",4.8 ± 0.78 nM
24,"Cc1ccc2c(C(O)c3ccccc3Cl)nccc2c1NC(=O)c1csc2c(N)ncnc12 (stereo not shown) [Compound 14, 4-amino-N-(1-((2-chlorophenyl)(hydroxy)methyl)-6-methylisoquinolin-5-yl)thieno[3,2-d]pyrimidine-7-carboxamide]",6.3 ± 0.7 nM
25,"Cc1ccc2c(C(O)c3cccc(Cl)c3)nccc2c1NC(=O)c1csc2c(N)ncnc12 (stereo not shown) [Compound 17, 4-amino-N-(1-((3-chlorophenyl)(hydroxy)methyl)-6-methylisoquinolin-5-yl)thieno[3,2-d]pyrimidine-7-carboxamide]",5.73 ± 1.05 nM
